Experiment [1] relates to Staphylococcus aureus. As to the kind of experiment: Antimicrobial activity against methicillin-resistant Staphylococcus aureus ATCC 43300 assessed as cell wall thickening at 1 ug/ml after 10 mins by transmission electron microscopy. It is filed as functional, organism-based.
Experiment [2] relates to Enterococcus faecalis. As to the kind of experiment: Antimicrobial activity against Enterococcus faecalis clinical isolate A5241515 assessed as formation of extensive fibrils around the cell at 0.12 ug/ml after 3 hrs by transmission electron microscopy. It is filed as functional, organism-based.
Experiment [3] deals with Enterococcus faecalis. As to the kind of experiment: Antimicrobial activity against Enterococcus faecalis clinical isolate A5241515 assessed as cell ghost formation at 0.12 ug/ml after 3 hrs by transmission electron microscopy. It is filed as functional, organism-based.
The subject of experiment [4] is Staphylococcus aureus. As to the kind of experiment: Antimicrobial activity against methicillin-resistant Staphylococcus aureus ATCC 43300 assessed as reduction in cell counts at 1 ug/ml after 10 mins. It is filed as functional.
Experiment [5] concerns Enterococcus faecalis. As to the kind of experiment: Antimicrobial activity against Enterococcus faecalis clinical isolate A5241515 assessed as growth inhibition at 0.12 ug/ml upto 3 hrs. It is filed as functional, organism-based.
For experiment [6], the system named is Enterococcus faecalis. As to the kind of experiment: Antimicrobial activity against Enterococcus faecalis clinical isolate A5241515 assessed as septal deformation at 0.12 ug/ml after 3 hrs by transmission electron microscopy. It is filed as functional, organism-based.
Experiment [7] has as its system Enterococcus faecalis. As to the kind of experiment: Antimicrobial activity against Enterococcus faecalis clinical isolate A5241515 assessed as formation of large membrane inclusions at 1 ug/ml after 6 hrs by transmission electron microscopy. It is filed as functional, organism-based.
For experiment [8], the system named is Enterococcus faecalis. As to the kind of experiment: Antimicrobial activity against Enterococcus faecalis clinical isolate A5241515 assessed as growth inhibition at 1 ug/ml upto 6 hrs. It is filed as functional, organism-based.
Experiment [9] has as its system Staphylococcus aureus. As to the kind of experiment: Antimicrobial activity against methicillin-resistant Staphylococcus aureus ATCC 43300 assessed as aberrant septum formation at 1 ug/ml after 10 mins by transmission electron microscopy. It is filed as functional, organism-based.
In experiment [10] the test system is Staphylococcus aureus. As to the kind of experiment: Antimicrobial activity against methicillin-resistant Staphylococcus aureus ATCC 43300 assessed as septal deformation at 1 ug/ml after 10 mins by transmission electron microscopy. It is filed as functional, organism-based.
Experiment [11] has as its system Staphylococcus aureus. As to the kind of experiment: Antimicrobial activity against methicillin-resistant Staphylococcus aureus ATCC 43300 assessed as formation of membrane inclusions at 1 ug/ml after 10 mins by transmission electron microscopy. It is filed as functional, organism-based.
Experiment [12] concerns Staphylococcus aureus. As to the kind of experiment: Antimicrobial activity against methicillin-resistant Staphylococcus aureus ATCC 43300 assessed as loss of septal midline at 1 ug/ml after 10 mins by transmission electron microscopy. It is filed as functional, organism-based.
The subject of experiment [13] is Staphylococcus aureus. As to the kind of experiment: Antimicrobial activity against methicillin-resistant Staphylococcus aureus ATCC 43300 assessed as septal deformation at 16 ug/ml after 3 hrs by transmission electron microscopy. It is filed as functional, organism-based.
In experiment [14] the test system is Staphylococcus aureus. As to the kind of experiment: Antimicrobial activity against methicillin-resistant Staphylococcus aureus ATCC 43300 assessed as reduction in cell counts at 16 ug/ml after 3 hrs. It is filed as functional.
In experiment [15] the test system is Staphylococcus aureus. As to the kind of experiment: Antimicrobial activity against methicillin-resistant Staphylococcus aureus ATCC 43300 assessed as loss of septal midline at 16 ug/ml after 3 hrs by transmission electron microscopy. It is filed as functional, organism-based.
Experiment [16] deals with Staphylococcus aureus. As to the kind of experiment: Antimicrobial activity against methicillin-resistant Staphylococcus aureus ATCC 43300 assessed as cell wall thickening at 16 ug/ml after 3 hrs by transmission electron microscopy. It is filed as functional, organism-based.
The subject of experiment [17] is Staphylococcus aureus. As to the kind of experiment: Antimicrobial activity against methicillin-resistant Staphylococcus aureus ATCC 43300 assessed as aberrant septum formation at 16 ug/ml after 3 hrs by transmission electron microscopy. It is filed as functional, organism-based.
The test system of experiment [18] is Staphylococcus aureus. As to the kind of experiment: Antimicrobial activity against methicillin-resistant Staphylococcus aureus ATCC 43300 assessed as formation of closing iris septal growth pattern at 16 ug/ml after 3 hrs by transmission electron microscopy. It is filed as functional, organism-based.

Each structure is given as a SMILES string. The source made the active and inactive calls. The rule behind the calls is not given here.

For the molecule `CN[C@H](CC(C)C)C(=O)N[C@H]1C(=O)N[C@@H](CC(N)=O)C(=O)N[C@H]2C(=O)N[C@H]3C(=O)N[C@H](C(=O)N[C@H](C(=O)O)c4cc(O)cc(O)c4-c4cc3ccc4O)[C@H](O[C@H]3C[C@](C)(N)[C@@H](O)[C@H](C)O3)c3ccc(c(Cl)c3)Oc3cc2cc(c3O[C@@H]2O[C@H](CO)[C@@H](O)[C@H](O)[C@H]2O[C@H]2C[C@](C)(NCc3ccc(-c4ccc(Cl)cc4)cc3)[C@@H](O)[C@H](C)O2)Oc2ccc(cc2Cl)[C@H]1O` [ORITAVANCIN], the result in experiment [1], in experiment [2], in experiment [3], in [5], in experiment [6] and in [7] was Active. The outcome in [8], in experiment [9], in [10], in [11] and in experiment [12] was Active. The “fold change (FC)” value in experiment [4] stood at 0.35.

As to `CN[C@H](CC(C)C)C(=O)N[C@H]1C(=O)N[C@@H](CC(N)=O)C(=O)N[C@H]2C(=O)N[C@H]3C(=O)N[C@H](C(=O)N[C@H](C(=O)O)c4cc(O)cc(O)c4-c4cc3ccc4O)[C@H](O)c3ccc(c(Cl)c3)Oc3cc2cc(c3O[C@@H]2O[C@H](CO)[C@@H](O)[C@H](O)[C@H]2O[C@H]2C[C@](C)(N)[C@H](O)[C@H](C)O2)Oc2ccc(cc2Cl)[C@H]1O` [VANCOMYCIN], the result in [13], in [15] and in [17] was inactive. Besides, the “fold change (FC)” value in experiment [14] is listed as 0.26. The result in experiment [16] and in experiment [18] was Active.
